From patent US12383545B1, “Treatment of migraine” (priority 2018, dated 2025)
Where “and” joins values, the source holds several entries; their conditions need not be identical. Identical values can stand only once.

Tests used:
Assay type in all cases: in vivo, human
[1] = tested on: participants with episodic migraine; assay: Study B: phase 3 randomized open-label 52-week long-term safety trial, eDiary efficacy (atogepant arm); conditions: for Change from Baseline in Monthly Acute Medication Use Days, LS means - MMRM / Monthly Acute Medication Use Days, Observed Mean: Atogepant 60 mg QD, mITT Population
Method: (§1) Study B: A phase 3, multicenter, randomized, open label study was conducted to evaluate the long-term safety and tolerability of oral atogepant for the prevention of migraine in participants with episodic migraine (Study B). The study objective was to evaluate the safety and tolerability of daily treatment with atogepant 60 mg QD when administered over 52 weeks for the prevention of migraine in participants with episodic migraine.
FIG. 12 provides a schematic for the long-term safety study design. The study comprised a 4-week baseline/screening period, followed by a 52-week open-label treatment period, and a 4-week safety follow-up period.
(§2) A total of 744 participants from 106 sites were randomized in a ratio of 5:2 to the following treatment groups: atogepant 60 mg QD or oral standard of care (SOC) migraine prevention medication. The latter arm was included to contextualize safety data from the atogepant-treated participants, and efficacy measures were collected from the atogepant arm only. Efficacy measures were evaluated using the modified intent-to-treat (mITT) population and a mixed-effects model for repeated measures and included changes from baseline in monthly migraine days (MDDs), moderate/severe headache days, and acute medication use days, as well as the proportion of responders based on reductions in MMDs.
A total of 739 patients (n=546 atogepant) were included in the safety population.
All Screened Participants include those screened participants that signed informed consent forms. The Intent-to-Treat Population (ITT) includes all of the randomized participants. The safety population includes all participants who received at least one dose of study intervention (atogepant or SOC medication).
Efficacy endpoints for this study included change from baseline in monthly migraine days at each monthly period; change from baseline in monthly headache days at each monthly period; change from baseline in monthly acute medication use days at each monthly period; and ≥50% improvement (reduction) in monthly migraine days at each monthly period.

[2] = tested on: participants with episodic migraine; assay: Study B: adverse events (atogepant 60 mg QD vs oral standard of care)
Method: as §1, §2
Regardless of which of these options was chosen, the participant was allowed to continue in the study. […]

[3] = tested on: participants with episodic migraine; assay: Study A: Patient Global Impression of Change (PGI-C) and satisfaction with study medication; conditions: for PGI-C responders (“much better” or “very much better”), percentage / Satisfaction with study medication (“satisfied” or “extremely satisfied”), percentage: Week 12, mITT; for PGI-C response, OR (95% CI) vs placebo / Satisfaction with study medication, OR (95% CI) vs placebo: week 12
Excerpt: Additional prespecified responder analyses included the Patient Global Impression of Change (PGI-C), defined as “much better” or “very much better” at week 12, and satisfaction with study medication, defined as “satisfied” or “extremely satisfied” at weeks 4, 8, and 12.

[4] = Study B, 60 mg QD, Weeks 1-4, mITT
[5] = Study B, 60 mg QD, Weeks 5-8, mITT
[6] = Study B, 60 mg QD, Weeks 9-12, mITT
[7] = Study B, 60 mg QD, Weeks 13-16, mITT
[8] = Study B, 60 mg QD, Weeks 17-20, mITT
[9] = Study B, 60 mg QD, Weeks 21-24, mITT
[10] = Study B, 60 mg QD, Weeks 25-28, mITT
[11] = Study B, 60 mg QD, Weeks 29-32, mITT
[12] = Study B, 60 mg QD, Weeks 33-36, mITT
[13] = Study B, 60 mg QD, Weeks 37-40, mITT
[14] = Study B, 60 mg QD, Weeks 41-44, mITT
[15] = Study B, 60 mg QD, Weeks 45-48, mITT
[16] = Study B, 60 mg QD, Weeks 49-52, mITT
[17] = Study B, 60 mg QD, weeks 49-52, participants who remained in the trial
[18] = week 12, range across atogepant groups

## C[C@@H]1[C@H](c2c(F)ccc(F)c2F)C[C@H](NC(=O)c2cnc3c(c2)C[C@@]2(C3)C(=O)Nc3ncccc32)C(=O)N1CC(F)(F)F [atogepant]
[1]; [4]
  Monthly headache days, change from baseline, LS means (95% CI) - MMRM: -4.00 days
  Monthly headache days, observed mean (SD): 4.40 days
  Monthly migraine days, change from baseline, LS means (95% CI) - MMRM: -3.84 days
  Monthly migraine days, observed mean (SD): 3.47 days
  ≥50% improvement (reduction) in monthly migraine days, responder n/N1 (%): (60.4) %
[1]; [5]
  Monthly headache days, change from baseline, LS means (95% CI) - MMRM: -4.40 days
  Monthly headache days, observed mean (SD): 3.97 days
  Monthly migraine days, change from baseline, LS means (95% CI) - MMRM: -4.15 days
  Monthly migraine days, observed mean (SD): 3.13 days
  ≥50% improvement (reduction) in monthly migraine days, responder n/N1 (%): (65.1) %
[1]; [6]
  Monthly headache days, change from baseline, LS means (95% CI) - MMRM: -4.80 days
  Monthly headache days, observed mean (SD): 3.51 days
  Monthly migraine days, change from baseline, LS means (95% CI) - MMRM: -4.38 days
  Monthly migraine days, observed mean (SD): 2.85 days
  ≥50% improvement (reduction) in monthly migraine days, responder n/N1 (%): (70.2) %
[1]; [7]
  Monthly headache days, change from baseline, LS means (95% CI) - MMRM: -5.12 days
  Monthly headache days, observed mean (SD): 3.19 days
  Monthly migraine days, change from baseline, LS means (95% CI) - MMRM: -4.69 days
  Monthly migraine days, observed mean (SD): 2.52 days
  ≥50% improvement (reduction) in monthly migraine days, responder n/N1 (%): (74.1) %
[1]; [8]
  Monthly headache days, change from baseline, LS means (95% CI) - MMRM: -5.35 days
  Monthly headache days, observed mean (SD): 2.84 days
  Monthly migraine days, change from baseline, LS means (95% CI) - MMRM: -4.76 days
  Monthly migraine days, observed mean (SD): 2.33 days
  ≥50% improvement (reduction) in monthly migraine days, responder n/N1 (%): (73.5) %
[1]; [9]
  Monthly headache days, change from baseline, LS means (95% CI) - MMRM: -5.30 days
  Monthly headache days, observed mean (SD): 2.87 days
  Monthly migraine days, change from baseline, LS means (95% CI) - MMRM: -4.72 days
  Monthly migraine days, observed mean (SD): 2.37 days
  ≥50% improvement (reduction) in monthly migraine days, responder n/N1 (%): (75.3) %
[1]; [10]
  Monthly headache days, change from baseline, LS means (95% CI) - MMRM: -5.42 days
  Monthly migraine days, change from baseline, LS means (95% CI) - MMRM: -4.85 days
  Monthly migraine days, observed mean (SD): 2.20 days
  ≥50% improvement (reduction) in monthly migraine days, responder n/N1 (%): (75.1) %
[1]; [11]
  Monthly headache days, change from baseline, LS means (95% CI) - MMRM: -5.41 days
  Monthly headache days, observed mean (SD): 2.52 days
  Monthly migraine days, change from baseline, LS means (95% CI) - MMRM: -4.82 days
  Monthly migraine days, observed mean (SD): 2.12 days
  ≥50% improvement (reduction) in monthly migraine days, responder n/N1 (%): (76.7) %
[1]; [12]
  Monthly headache days, change from baseline, LS means (95% CI) - MMRM: -5.62 days
  Monthly headache days, observed mean (SD): 2.47 days
  Monthly migraine days, change from baseline, LS means (95% CI) - MMRM: -4.95 days
  Monthly migraine days, observed mean (SD): 2.06 days
  ≥50% improvement (reduction) in monthly migraine days, responder n/N1 (%): (80.5) %
[1]; [13]
  Monthly headache days, change from baseline, LS means (95% CI) - MMRM: -5.69 days
  Monthly headache days, observed mean (SD): 2.45 days
  Monthly migraine days, change from baseline, LS means (95% CI) - MMRM: -4.97 days
  Monthly migraine days, observed mean (SD): 2.08 days
  ≥50% improvement (reduction) in monthly migraine days, responder n/N1 (%): (78.1) %
[1]; [14]
  Monthly headache days, change from baseline, LS means (95% CI) - MMRM: -5.66 days
  Monthly headache days, observed mean (SD): 2.45 days
  Monthly migraine days, change from baseline, LS means (95% CI) - MMRM: -4.95 days
  Monthly migraine days, observed mean (SD): 2.09 days
  ≥50% improvement (reduction) in monthly migraine days, responder n/N1 (%): (78.5) %
[1]; [15]
  Monthly headache days, change from baseline, LS means (95% CI) - MMRM: -5.90 days
  Monthly headache days, observed mean (SD): 2.23 days
  Monthly migraine days, change from baseline, LS means (95% CI) - MMRM: -5.13 days
  Monthly migraine days, observed mean (SD): 1.91 days
  ≥50% improvement (reduction) in monthly migraine days, responder n/N1 (%): (82.4) %
[1]; [16]
  Monthly headache days, change from baseline, LS means (95% CI) - MMRM: -5.99 days
  Monthly headache days, observed mean (SD): 2.13 days
  Monthly migraine days, change from baseline, LS means (95% CI) - MMRM: -5.19 days
  Monthly migraine days, observed mean (SD): 1.84 days
  ≥50% improvement (reduction) in monthly migraine days, responder n/N1 (%): 84.2%
[1]; Study B, 60 mg QD, Weeks 49-52, mITT, listed as Atogepant
  ≥50% improvement (reduction) in monthly migraine days, responder n/N1 (%): (84.2) %
[1]; [17]
  participants with 100% reduction in MMDs: 48.4%
  participants with ≥75% reduction in MMDs: 69.9%
[1]; Study B, 60 mg, month 1, given as reduction
  reduction from baseline in monthly migraine days: approximately 4 days
[1]; Weeks 1-4
  Change from Baseline in Monthly Acute Medication Use Days, LS means - MMRM: -4.04 days
  Monthly Acute Medication Use Days, Observed Mean: 2.60 days
[1]; Weeks 5-8
  Change from Baseline in Monthly Acute Medication Use Days, LS means - MMRM: -4.11 days
  Monthly Acute Medication Use Days, Observed Mean: 2.49 days
[1]; Weeks 9-12
  Change from Baseline in Monthly Acute Medication Use Days, LS means - MMRM: -4.18 days
  Monthly Acute Medication Use Days, Observed Mean: 2.39 days
[1]; Weeks 13-16
  Change from Baseline in Monthly Acute Medication Use Days, LS means - MMRM: -4.46 days
  Monthly Acute Medication Use Days, Observed Mean: 2.09 days
[1]; Weeks 17-20
  Change from Baseline in Monthly Acute Medication Use Days, LS means - MMRM: -4.56 days
  Monthly Acute Medication Use Days, Observed Mean: 1.92 days
[1]; Weeks 21-24
  Change from Baseline in Monthly Acute Medication Use Days, LS means - MMRM: -4.49 days
  Monthly Acute Medication Use Days, Observed Mean: 2.01 days
[1]; Weeks 25-28
  Change from Baseline in Monthly Acute Medication Use Days, LS means - MMRM: -4.59 days
  Monthly Acute Medication Use Days, Observed Mean: 1.90 days
[1]; Weeks 29-32
  Change from Baseline in Monthly Acute Medication Use Days, LS means - MMRM: -4.54 days
  Monthly Acute Medication Use Days, Observed Mean: 1.84 days
[1]; Weeks 33-36
  Change from Baseline in Monthly Acute Medication Use Days, LS means - MMRM: -4.66 days
  Monthly Acute Medication Use Days, Observed Mean: 1.75 days
[1]; Weeks 37-40
  Change from Baseline in Monthly Acute Medication Use Days, LS means - MMRM: -4.68 days
  Monthly Acute Medication Use Days, Observed Mean: 1.75 days
[1]; Weeks 41-44
  Change from Baseline in Monthly Acute Medication Use Days, LS means - MMRM: -4.71 days
  Monthly Acute Medication Use Days, Observed Mean: 1.69 days
[1]; Weeks 45-48
  Change from Baseline in Monthly Acute Medication Use Days, LS means - MMRM: -4.90 days
  Monthly Acute Medication Use Days, Observed Mean: 1.51 days
[1]; Weeks 49-52
  Change from Baseline in Monthly Acute Medication Use Days, LS means - MMRM: -4.93 days
  Monthly Acute Medication Use Days, Observed Mean: 1.50 days
[2]; 52-week open-label, atogepant 60 mg QD or standard of care, safety population
  Death, n (%): (0.4) %
[2]; atogepant 60 mg QD
  deaths reported (considered not related to atogepant): Two
[3]; 10 mg
  PGI-C responders (“much better” or “very much better”), percentage: 72.1%
  Satisfaction with study medication (“satisfied” or “extremely satisfied”), percentage: 77.7%
  PGI-C response, OR (95% CI) vs placebo: 3.05
  Satisfaction with study medication, OR (95% CI) vs placebo: 2.77
[3]; 30 mg
  PGI-C responders (“much better” or “very much better”), percentage: 73.2%
  Satisfaction with study medication (“satisfied” or “extremely satisfied”), percentage: 80.3%
  PGI-C response, OR (95% CI) vs placebo: 3.33
  Satisfaction with study medication, OR (95% CI) vs placebo: 3.44
[3]; 60 mg
  PGI-C responders (“much better” or “very much better”), percentage: 76.1%
  Satisfaction with study medication (“satisfied” or “extremely satisfied”), percentage: 82.6%
  PGI-C response, OR (95% CI) vs placebo: 3.83
  Satisfaction with study medication, OR (95% CI) vs placebo: 3.58
[3]; each atogepant group
  odds of achieving PGI-C response, times that of placebo: ≥ 3 times
[3]; week 12, atogepant groups
  odds for being treatment satisfaction responders, times greater than placebo: 2-4 times
[3]; [18]
  proportion of patients satisfied with treatment: 78%-83%
  proportion of patients who were PGI-C responders: 72%-76% and 70-80%
